According to ChEMBL document CHEMBL4651402, “Screening of ~5500 FDA-approved drugs and clinical candidates for anti-SARS-CoV-2 activity” (2021):

System: SARS-CoV-2
Experiment: microbe, parasite or virus in culture
Conditions: Severe acute respiratory syndrome coronavirus 2, Vero C1008, 48 h

SMILES	IC50 [µM]	IC50 (read-out: pIC50 (converted)) [µM]
COc1ccc(C(=O)OC2C[C@H]3CC[C@H](C2)N3C)cc1OC (stereo partly drawn)	> 20	> 20
CC(C)CCCC(C)NC(C)C (stereo not drawn) [IPROHEPTINE]	> 20	> 20
CC1(C)S[C@@H]2[C@H](NC(=O)[C@H](N)c3ccccc3)C(=O)N2[C@H]1C(=O)O [AMPICILLIN]	> 20	> 20
OC1CCCc2nc3ccccc3c(NCc3ccccc3)c21 (stereo not drawn) [SURONACRINE]	> 20	> 20
CCOC(=O)C1=C(C)NC(C)=C(C(=O)OCC)C1c1cccc2nonc12 [DARODIPINE]	> 20	> 20
Cc1ccccc1C(OCCN(C)C)c1ccccc1 (stereo not drawn) [ORPHENADRINE]	> 20	> 20
O=c1c(O)c(-c2ccc(O)cc2O)oc2cc(O)cc(O)c12 [MORIN]	> 20	> 20
CCC(=O)C(CCN(C)C)(c1ccccc1)c1ccccc1 [NORMETHADONE]	> 20	> 20
C=C[C@@](C)(O)CC[C@H]1C(=C)CCC2[C@@](C)(CO)CCC[C@@]21C (stereo partly drawn)	> 20	> 20
CCOC(=O)[N-]c1c[n+](N2CCOCC2)no1 [MOLSIDOMINE]	> 20	> 20
C#Cc1cccc(Nc2ncnc3cc4c(cc23)OCCOCCOCCO4)c1 [ICOTINIB]	> 20	> 20
O=C(O)[C@H]1O[C@@H](Oc2cc3oc(-c4ccccc4)cc(=O)c3c(O)c2O)[C@H](O)[C@@H](O)[C@@H]1O [BAICALIN]	> 20	> 20
CC(=O)OCC(=O)[C@@]1(O)CCC2C3C[C@H](C)C4=CC(=O)C=CC4(C)C3C(O)CC21C (stereo partly drawn)	> 20	> 20
COc1c2ccoc2cc2oc(C)cc(=O)c12 [VISNAGIN]	> 20	> 20
Cc1ncc([N+](=O)[O-])n1CC(C)O (stereo not drawn) [SECNIDAZOLE]	> 20	> 20
CC(C)(N)Cc1ccccc1 [PHENTERMINE]	> 20	> 20
CNC(=O)Oc1ccc2c(c1)[C@]1(C)CCN(C)[C@@H]1N2C [PHYSOSTIGMINE]	> 20	> 20
CCCc1c(OCCCCc2nnn[nH]2)ccc(C(C)=O)c1O [TOMELUKAST]	> 20	> 20
Cc1cn(Cc2ccc(Cl)cc2Cl)c2c(/C=C/C(=O)NS(=O)(=O)c3cc(Cl)c(Cl)s3)cc(F)cc12	> 20	> 20
COc1ccc2c3c1O[C@H]1[C@@H](O)C=C[C@H]4C(C2)N(C)CCC341 (stereo partly drawn)	> 20	> 20
CCCCCCCCCCCCCCCC(=O)O [PALMITIC ACID]	> 20	> 20
CC1CCC(C(C)C)C(O)C1 (stereo not drawn) [MENTHOL]	> 20	> 20

SMILES	IC50 [µM]	IC50 (read-out: pIC50 (converted)) [µM]
CCCCN1CCCCC1C(=O)Nc1c(C)cccc1C (stereo not drawn) [BUPIVACAINE]	> 20	> 20
CC[C@H](NC(=O)c1c(O)c(-c2ccccc2)nc2ccccc12)c1ccccc1 [TALNETANT]	> 20	> 20
COc1cc(C(=S)N2CCOCC2)cc(OC)c1OC [TRITIOZINE]	> 20	> 20
NC1CCN(c2c(F)cc3c(=O)c(C(=O)O)cn(C4CC4)c3c2Cl)C1 (stereo not drawn) [CLINAFLOXACIN]	> 20	> 20
O=C1CCC(c2ccc(-n3ccnc3)cc2)=NN1 [IMAZODAN]	> 20	> 20
NC(COCc1ccccc1)C(=O)O (stereo not drawn)	> 20	> 20
CCCCN(CCCC)CCNc1nc(-c2ccccc2)no1 [BUTALAMINE]	> 20	> 20
Nc1ccc(C(=O)NCC(=O)O)cc1 [AMINOHIPPURIC ACID]	> 20	> 20
CC(=O)OC[C@H]1O[C@@H](n2ncc(=O)[nH]c2=O)[C@H](OC(C)=O)[C@@H]1OC(C)=O [AZARIBINE]	> 20	> 20
CC(C)(C)NCC(O)COc1cccc2c1CC(O)C(O)C2 (stereo not drawn) [NADOLOL]	> 20	> 20
CCN(CC)CCOC(=O)C(O)(c1ccccc1)c1ccccc1 [BENACTYZINE]	> 20	> 20
O=C(CC1NCCCC1O)Cn1cnc2cc(Br)c(Cl)cc2c1=O (stereo not drawn) [HALOFUGINONE]	> 20	> 20
CC(=O)OC1CCC2C3CC[C@H]4CC(=O)C(C)=CC4(C)C3CCC12C (stereo partly drawn)	> 20	> 20
Nc1nc(F)nc2c1ncn2[C@@H]1O[C@H](CO)[C@@H](O)[C@H]1O	> 20	> 20
CN[C@H](Cc1ccccc1)C(=O)N1CCC[C@H]1C(=O)N[C@H](C=O)CCCNC(=N)N	> 20	> 20
CC(N)(Cc1ccc(O)c(O)c1)C(=O)O (stereo not drawn) [METHYLDOPA (RACEMIC)]	> 20	> 20
CCOc1ccn(-c2ccc(F)cc2)c(=O)c1C(=O)Nc1ccc(Oc2ccnc(N)c2Cl)c(F)c1 [BMS-777607]	> 20	> 20
Oc1cccc2cccnc12 [OXYQUINOLINE]	> 20	> 20
NC(=O)NS(=O)(=O)c1ccc(N)cc1 [SULFACARBAMIDE]	> 20	> 20
CS(=N)(=O)CC[C@H](N)C(=O)O (stereo partly drawn)	> 20	> 20
Cc1cn([C@H]2C[C@H](N=[N+]=[N-])[C@@H](CO)O2)c(=O)[nH]c1=O [ZIDOVUDINE]	> 100	> 100
CN1[C@@H]2C[C@@H](OC(=O)[C@@](O)(CO)c3ccccc3)C[C@H]1[C@@H]1O[C@@H]12	> 20	> 20

SMILES	IC50 [µM]	IC50 (read-out: pIC50 (converted)) [µM]
O=C(O)[C@H]1CCCC[C@]1(O)c1ccccc1	> 20	> 20
O=C1[C@H](CC[C@H](O)c2ccc(F)cc2)[C@@H](c2ccc(O)cc2)N1c1ccc(F)cc1 [EZETIMIBE]	> 20	> 20
COc1cc(C(=O)NS(=O)(=O)c2ccccc2C)ccc1Cc1cn(C)c2ccc(NC(=O)OC3CCCC3)cc12 [ZAFIRLUKAST]	> 20	> 20
CN(C)CCOCC(=O)NC12CC3CC(CC(C3)C1)C2	> 20	> 20
C=CCN1CC[C@]23c4c5ccc(O)c4O[C@H]2C(=O)CC[C@@]3(O)[C@H]1C5 [NALOXONE]	> 20	> 20
CCOc1ccc2c3c1O[C@H]1[C@@H](O)C=C[C@H]4[C@@H](C2)N(C)CC[C@@]341 [ETHYLMORPHINE]	> 20	> 20
CCN(CC)CC(=O)Nc1c(C)cc(C)cc1C [TRIMECAINE]	> 20	> 20
CC(C)(C)C(=O)OCOC(=O)[C@@H]1N2C(=O)[C@@H](NC(=O)[C@H](N)c3ccccc3)[C@H]2SC1(C)C [PIVAMPICILLIN]	> 20	> 20
CN(C)CCCn1c2c(c3ccccc31)CCCCCC2 [IPRINDOLE]	> 20	> 20
Cn1ncc(-c2nc(N[C@H]3CC[C@H](N)CC3)ncc2Cl)c1CC1CC1 [BTX-A51]	> 20	> 20
NCCc1cc[nH]n1 [BETAZOLE]	> 20	> 20
CS(=O)(=O)c1ccc(C(=O)Nc2ccc(Cl)c(-c3ccccn3)c2)c(Cl)c1 [VISMODEGIB]	> 20	> 20
COc1ccc2c(c1OC)C(=O)O[C@@H]2[C@H]1c2cc3c(cc2CCN1C)OCO3 [HYDRASTINE]	> 20	> 20
C[C@@H]1c2nnn(-c3ncc(F)cn3)c2CCN1C(=O)c1cccc(C(F)(F)F)c1Cl [JNJ-54175446]	> 20	> 20
CNc1c2c(nn1C)CCCC2 [TETRYDAMINE]	> 20	> 20
CSC[C@H](NC(=O)COc1cccc2cnccc12)C(=O)N[C@@H](Cc1ccccc1)[C@H](O)C(=O)N1CSC[C@H]1C(=O)NC(C)(C)C	> 20	> 20
C=CC(=O)N1CCC(Oc2cc3c(Nc4ccc(Cl)c(Cl)c4F)ncnc3cc2OC)CC1 [POZIOTINIB]	> 20	> 20
C[C@]12CCCN1CC1=NNC(=O)c3cc(F)cc4[nH]c2c1c34 [PAMIPARIB]	> 20	> 20
CC(Oc1ccccc1)C(=O)N[C@@H]1C(=O)N2[C@@H]1SC(C)(C)[C@@H]2C(=O)O (stereo partly drawn) [PHENETHICILLIN]	> 20	> 20
CN1CC[C@]23c4c5ccc(O)c4O[C@H]2C(=O)C=C[C@@]3(O)C1C5	> 20	> 20
